Source: ChEMBL document CHEMBL1130231, “Betidamino acid scan of the GnRH antagonist acyline” (J Med Chem, 1997)
Active and inactive are the calls of the source. The rule behind the calls is not given here.

Experiments:
Format in all cases: functional, organism-based
Rattus norvegicus [1] = assay: Ratio of ovulated rats to total number of rats determined in a anti-ovulatory assay by administering 0.5 microg of compound; 5/8
Rattus norvegicus [2] = assay: Ratio of ovulated rats to total number of rats determined in a anti-ovulatory assay by administering 2.5 microg of compound; 0/8
Rattus norvegicus [3] = assay: Ratio of ovulated rats to total number of rats determined in a anti-ovulatory assay by administering 1 microg of compound; 0/8
Rattus norvegicus [4] = assay: Ratio of ovulated rats to total number of rats determined in a anti-ovulatory assay by administering 250 microg of compound; 2/2
Rattus norvegicus [5] = assay: Ratio of ovulated rats to total number of rats determined in a anti-ovulatory assay by administering 25 microg of compound; 0/3
Rattus norvegicus [6] = assay: Ratio of ovulated rats to total number of rats determined in a anti-ovulatory assay by administering 10 microg of compound; 2/6
Rattus norvegicus [7] = assay: Ratio of ovulated rats to total number of rats determined in a anti-ovulatory assay by administering 250 microg of compound; 3/3
Rattus norvegicus [8] = assay: Ratio of ovulated rats to total number of rats determined in a anti-ovulatory assay by administering 1 microg of compound; 3/8
Rattus norvegicus [9] = assay: Ratio of ovulated rats to total number of rats determined in a anti-ovulatory assay by administering 5 microg of compound; 0/8
Rattus norvegicus [10] = assay: Ratio of ovulated rats to total number of rats determined in a anti-ovulatory assay by administering 2.5 microg of compound; 5/5
Rattus norvegicus [11] = assay: Ratio of ovulated rats to total number of rats determined in a anti-ovulatory assay by administering 2.5 microg of compound; 0/5
Rattus norvegicus [12] = assay: Ratio of ovulated rats to total number of rats determined in a anti-ovulatory assay by administering 1 microg of compound; 6/14
Rattus norvegicus [13] = assay: Ratio of ovulated rats to total number of rats determined in a anti-ovulatory assay by administering 100 microg of compound; 0/8
Rattus norvegicus [14] = assay: Ratio of ovulated rats to total number of rats determined in a anti-ovulatory assay by administering 50 microg of compound; 3/8
Rattus norvegicus [15] = assay: Ratio of ovulated rats to total number of rats determined in a anti-ovulatory assay by administering 5 microg of compound; 4/8
Rattus norvegicus [16] = assay: Ratio of ovulated rats to total number of rats determined in a anti-ovulatory assay by administering 10 microg of compound; 4/8
Rattus norvegicus [17] = assay: Ratio of ovulated rats to total number of rats determined in a anti-ovulatory assay by administering 2.5 microg of compound; 7/8
Rattus norvegicus [18] = assay: Ratio of ovulated rats to total number of rats determined in a anti-ovulatory assay by administering 2.5 microg of compound; 0/7
Rattus norvegicus [19] = assay: Ratio of ovulated rats to total number of rats determined in a anti-ovulatory assay by administering 1 ug of compound; 3/3
Rattus norvegicus [20] = assay: Ratio of ovulated rats to total number of rats determined in a anti-ovulatory assay by administering 250 microg of compound; 8/9
Rattus norvegicus [21] = assay: Ratio of ovulated rats to total number of rats determined in a anti-ovulatory assay by administering 1 ug of compound; 6/8
Rattus norvegicus [22] = assay: Ratio of ovulated rats to total number of rats determined in a anti-ovulatory assay by administering 2.5 microg of compound; 5/8
Rattus norvegicus [23] = assay: Ratio of ovulated rats to total number of rats determined in a anti-ovulatory assay by administering 1 microg of compound; 2/7
Rattus norvegicus [24] = assay: Ratio of ovulated rats to total number of rats determined in a anti-ovulatory assay by administering 1.0 microg of compound; 3/4
Rattus norvegicus [25] = assay: Ratio of ovulated rats to total number of rats determined in a anti-ovulatory assay by administering 5 microg of compound; 0/4
Rattus norvegicus [26] = assay: Ratio of ovulated rats to total number of rats determined in a anti-ovulatory assay by administering 2.5 microg of compound; 1/7
Rattus norvegicus [27] = assay: Ratio of ovulated rats to total number of rats determined in a anti-ovulatory assay by administering 0.5 microg of compound; 9/11
Rattus norvegicus [28] = assay: Ratio of ovulated rats to total number of rats determined in a anti-ovulatory assay by administering 1 microg of compound; 6/17

Q: For `CC(=O)Nc1ccc(C[C@H](NC(=O)[C@H](CO)NC(=O)[C@@H](Cc2cccnc2)NC(=O)[C@@H](Cc2ccc(Cl)cc2)NC(=O)[C@@H](Cc2ccc3ccccc3c2)NC(C)=O)C(=O)N[C@H](Cc2ccc(NC(C)=O)cc2)C(=O)N[C@@H](CC(C)C)C(=O)N[C@H](C(=O)N2CCC[C@@H]2C(=O)N[C@H](C)C(N)=O)N(C)C(=O)CCNC(C)C)cc1` (single isomer, unassigned), which ov. rat/total (Rattus norvegicus [1]) is on record?
A: Partially active

Q: What about the ov. rat/total (Rattus norvegicus [2]) of the same compound?
A: Active

Q: And the ov. rat/total (Rattus norvegicus [3])?
A: Active

Q: How did the ov. rat/total (Rattus norvegicus [4]) turn out when `CC(=O)Nc1ccc(C[C@H](NC(=O)[C@H](CO)NC(=O)[C@@H](Cc2cccnc2)NC(=O)[C@@H](NC(=O)c2cnccn2)NC(=O)[C@@H](Cc2ccc3ccccc3c2)NC(C)=O)C(=O)N[C@H](Cc2ccc(NC(C)=O)cc2)C(=O)N[C@@H](CC(C)C)C(=O)N[C@@H](CCCCNC(C)C)C(=O)N2CCC[C@@H]2C(=O)N[C@H](C)C(N)=O)cc1` was run?
A: inactive

Q: For `CC(=O)Nc1ccc(C[C@H](NC(=O)[C@H](CO)NC(=O)[C@@H](Cc2cccnc2)NC(=O)[C@@H](Cc2ccc(Cl)cc2)NC(=O)[C@H](Cc2ccc3ccccc3c2)NC(C)=O)C(=O)N[C@H](Cc2ccc(NC(C)=O)cc2)C(=O)N[C@@H](CC(C)C)C(=O)N[C@@H](CCCCNC(C)C)C(=O)N2CCC[C@@H]2C(=O)N[C@H](C)C(N)=O)cc1`, which ov. rat/total (Rattus norvegicus [5]) is on record?
A: Active

Q: And the ov. rat/total (Rattus norvegicus [6])?
A: Partially active

Q: `CC(=O)Nc1ccc(C[C@H](NC(=O)[C@H](CO)NC(=O)[C@@H](Cc2cccnc2)NC(=O)[C@H](NC(=O)c2cnccn2)NC(=O)[C@@H](Cc2ccc3ccccc3c2)NC(C)=O)C(=O)N[C@H](Cc2ccc(NC(C)=O)cc2)C(=O)N[C@@H](CC(C)C)C(=O)N[C@@H](CCCCNC(C)C)C(=O)N2CCC[C@@H]2C(=O)N[C@H](C)C(N)=O)cc1` (single isomer, unassigned) was tested. Which ov. rat/total (Rattus norvegicus [7]) did it give?
A: inactive

Q: Which ov. rat/total (Rattus norvegicus [8]) does the source give for `CC(=O)Nc1ccc(C[C@H](NC(=O)[C@H](CO)NC(=O)[C@@H](Cc2cccnc2)NC(=O)[C@@H](Cc2ccc(Cl)cc2)NC(=O)[C@@H](Cc2ccc3ccccc3c2)NC(C)=O)C(=O)N[C@H](Cc2ccc(NC(C)=O)cc2)C(=O)N[C@@H](CC(C)C)C(=O)N[C@@H](CCCCNC(C)C)C(=O)N2CCC[C@@H]2C(=O)N[C@H](N)C(N)=O)cc1` here?
A: Partially active

Q: And the ov. rat/total (Rattus norvegicus [2])?
A: Active

Q: How did the ov. rat/total (Rattus norvegicus [9]) turn out when `CC(=O)Nc1ccc(C[C@H](NC(=O)[C@H](CO)NC(=O)[C@@H](Cc2cccnc2)NC(=O)[C@@H](Cc2ccc(Cl)cc2)NC(=O)[C@H](NC(C)=O)NC(=O)c2ccc3ccccc3c2)C(=O)N[C@H](Cc2ccc(NC(C)=O)cc2)C(=O)N[C@@H](CC(C)C)C(=O)N[C@@H](CCCCNC(C)C)C(=O)N2CCC[C@@H]2C(=O)N[C@H](C)C(N)=O)cc1` was run?
A: Active

Q: What about the ov. rat/total (Rattus norvegicus [10]) of the same compound?
A: inactive

Q: Which ov. rat/total (Rattus norvegicus [11]) does the source give for `CC(=O)Nc1ccc(C[C@H](NC(=O)[C@H](CO)NC(=O)[C@@H](NC(=O)c2cccnc2)NC(=O)[C@@H](Cc2ccc(Cl)cc2)NC(=O)[C@@H](Cc2ccc3ccccc3c2)NC(C)=O)C(=O)N[C@H](Cc2ccc(NC(C)=O)cc2)C(=O)N[C@@H](CC(C)C)C(=O)N[C@@H](CCCCNC(C)C)C(=O)N2CCC[C@@H]2C(=O)N[C@H](C)C(N)=O)cc1` here?
A: Active

Q: And the ov. rat/total (Rattus norvegicus [12])?
A: Partially active

Q: Which results are given for `CC(=O)Nc1ccc(C[C@H](NC(=O)[C@H](CO)NC(=O)[C@@H](Cc2cccnc2)NC(=O)[C@H](NC(=O)[C@@H](Cc2ccc3ccccc3c2)NC(C)=O)N(C)C(=O)c2ccc(Cl)cc2)C(=O)N[C@H](Cc2ccc(NC(C)=O)cc2)C(=O)N[C@@H](CC(C)C)C(=O)N[C@@H](CCCCNC(C)C)C(=O)N2CCC[C@@H]2C(=O)N[C@H](C)C(N)=O)cc1`?
A: ov. rat/total (Rattus norvegicus [13]): Active; ov. rat/total (Rattus norvegicus [14]): Partially active

Q: How did the ov. rat/total (Rattus norvegicus [15]) turn out when `CC(=O)Nc1ccc(C[C@H](NC(=O)[C@H](NC(=O)CO)NC(=O)[C@@H](Cc2cccnc2)NC(=O)[C@@H](Cc2ccc(Cl)cc2)NC(=O)[C@@H](Cc2ccc3ccccc3c2)NC(C)=O)C(=O)N[C@H](Cc2ccc(NC(C)=O)cc2)C(=O)N[C@@H](CC(C)C)C(=O)N[C@@H](CCCCNC(C)C)C(=O)N2CCC[C@@H]2C(=O)N[C@H](C)C(N)=O)cc1` (single isomer, unassigned) was run?
A: Partially active

Q: What does the source list for `CC(=O)Nc1ccc(C[C@H](NC(=O)[C@H](CO)NC(=O)[C@@H](Cc2cccnc2)NC(=O)[C@@H](Cc2ccc(Cl)cc2)NC(=O)[C@@H](Cc2ccc3ccccc3c2)NC(C)=O)C(=O)N[C@H](Cc2ccc(NC(C)=O)cc2)C(=O)N[C@@H](CC(C)C)C(=O)N[C@@H](C(=O)N2CCC[C@@H]2C(=O)N[C@H](C)C(N)=O)N(C)C(=O)CCNC(C)C)cc1` (single isomer, unassigned)?
A: ov. rat/total (Rattus norvegicus [16]): Partially active; ov. rat/total (Rattus norvegicus [17]): inactive

Q: Which ov. rat/total (Rattus norvegicus [18]) does the source give for `CC(=O)Nc1ccc(C[C@H](NC(=O)[C@H](CO)NC(=O)[C@H](NC(=O)c2cccnc2)NC(=O)[C@@H](Cc2ccc(Cl)cc2)NC(=O)[C@@H](Cc2ccc3ccccc3c2)NC(C)=O)C(=O)N[C@H](Cc2ccc(NC(C)=O)cc2)C(=O)N[C@@H](CC(C)C)C(=O)N[C@@H](CCCCNC(C)C)C(=O)N2CCC[C@@H]2C(=O)N[C@H](C)C(N)=O)cc1` here?
A: Active

Q: What about the ov. rat/total (Rattus norvegicus [19]) of the same compound?
A: inactive

Q: `CC(=O)Nc1ccc(C[C@H](NC(=O)[C@H](CO)NC(=O)[C@@H](Cc2cccnc2)NC(=O)[C@@H](NC(=O)c2c[nH]nc2N)NC(=O)[C@@H](Cc2ccc3ccccc3c2)NC(C)=O)C(=O)N[C@H](Cc2ccc(NC(C)=O)cc2)C(=O)N[C@@H](CC(C)C)C(=O)N[C@@H](CCCCNC(C)C)C(=O)N2CCC[C@@H]2C(=O)N[C@H](C)C(N)=O)cc1` (single isomer, unassigned) was tested. Which ov. rat/total (Rattus norvegicus [20]) did it give?
A: inactive

Q: For `CC(=O)Nc1ccc(C[C@H](NC(=O)[C@H](NC=O)NC(=O)[C@@H](Cc2cccnc2)NC(=O)[C@@H](Cc2ccc(Cl)cc2)NC(=O)[C@@H](Cc2ccc3ccccc3c2)NC(C)=O)C(=O)N[C@H](Cc2ccc(NC(C)=O)cc2)C(=O)N[C@@H](CC(C)C)C(=O)N[C@@H](CCCCNC(C)C)C(=O)N2CCC[C@@H]2C(=O)N[C@H](C)C(N)=O)cc1`, which ov. rat/total (Rattus norvegicus [9]) is on record?
A: Active

Q: And the ov. rat/total (Rattus norvegicus [21])?
A: inactive

Q: Which ov. rat/total (Rattus norvegicus [22]) does the source give for `CC(=O)Nc1ccc(C[C@H](NC(=O)[C@@H](NC(=O)[C@@H](Cc2cccnc2)NC(=O)[C@@H](Cc2ccc(Cl)cc2)NC(=O)[C@@H](Cc2ccc3ccccc3c2)NC(C)=O)N(C)C=O)C(=O)N[C@H](Cc2ccc(NC(C)=O)cc2)C(=O)N[C@@H](CC(C)C)C(=O)N[C@@H](CCCCNC(C)C)C(=O)N2CCC[C@@H]2C(=O)N[C@H](C)C(N)=O)cc1` (single isomer, unassigned) here?
A: Partially active

Q: `CC(=O)Nc1ccc(C[C@H](NC(=O)[C@H](CO)NC(=O)[C@@H](Cc2cccnc2)NC(=O)[C@@H](Cc2ccc(Cl)cc2)NC(=O)[C@@H](NC(C)=O)NC(=O)c2ccc3ccccc3c2)C(=O)N[C@H](Cc2ccc(NC(C)=O)cc2)C(=O)N[C@@H](CC(C)C)C(=O)N[C@@H](CCCCNC(C)C)C(=O)N2CCC[C@@H]2C(=O)N[C@H](C)C(N)=O)cc1` was tested. Which ov. rat/total (Rattus norvegicus [2]) did it give?
A: Active

Q: And the ov. rat/total (Rattus norvegicus [23])?
A: Partially active

Q: With `CC(=O)Nc1ccc(C[C@H](NC(=O)[C@H](CO)NC(=O)[C@@H](Cc2cccnc2)NC(=O)[C@@H](Cc2ccc(Cl)cc2)NC(=O)[C@@H](Cc2ccc3ccccc3c2)NC(C)=O)C(=O)N[C@H](Cc2ccc(NC(C)=O)cc2)C(=O)N[C@@H](CC(C)C)C(=O)NC(NC(=O)CN=C(N)N)C(=O)N2CCC[C@@H]2C(=O)N[C@H](C)C(N)=O)cc1` (stereo partly specified) as the compound, how does the ov. rat/total (Rattus norvegicus [24]) read?
A: inactive

Q: What about the ov. rat/total (Rattus norvegicus [25]) of the same compound?
A: Active

Q: What about the ov. rat/total (Rattus norvegicus [26]) of the same compound?
A: Active

Q: Which results are given for `CC(=O)Nc1ccc(C[C@H](NC(=O)[C@H](CO)NC(=O)[C@@H](Cc2cccnc2)NC(=O)[C@@H](Cc2ccc(Cl)cc2)NC(=O)[C@@H](Cc2ccc3ccccc3c2)NC(C)=O)C(=O)N[C@H](Cc2ccc(NC(C)=O)cc2)C(=O)N[C@@H](CC(C)C)C(=O)N[C@@H](CCCCNC(C)C)C(=O)N2CCC[C@@H]2C(=O)N[C@H](NC=O)C(N)=O)cc1` (single isomer, unassigned)?
A: ov. rat/total (Rattus norvegicus [27]): inactive; ov. rat/total (Rattus norvegicus [28]): Partially active
